According to paper PMC9080520 (RSC Advances, 2018):

Assay: Antioxidant assay: DPPH radical-scavenging activity
Conditions: read-out: Antioxidant activity IC50 (DPPH); DPPH method

Compound	IC50
C[C@@H]1O[C@@H](O[C@H]2[C@H](Oc3c(-c4ccc(O)cc4)oc4cc(O)cc(O)c4c3=O)O[C@H](CO[C@@H]3O[C@H](CO)[C@@H](O)[C@H](O)[C@H]3O)[C@@H](O)[C@@H]2O)[C@H](O)[C@H](O)[C@H]1O [Compound 2, kaempferol-3-O-β-D-glucopyranosyl-(1 → 6)-[α-L-rhamnopyranosyl-(1 → 2)]-β-D-glucopyranoside]	170 ± 5.2 µM
C[C@@H]1O[C@@H](OC[C@H]2O[C@@H](Oc3c(-c4ccc(O)cc4)oc4cc(O)cc(O)c4c3=O)[C@H](O[C@@H]3O[C@H](CO)[C@@H](O)[C@H](O)[C@H]3O)[C@@H](O)[C@@H]2O)[C@H](O)[C@H](O)[C@H]1O [Compound 4, kaempferol-3-O-β-D-glucopyranosyl-(1 → 2)-[α-L-rhamnopyranosyl-(1 → 6)]-β-D-glucopyranoside]	257 ± 19.9 µM
O=c1c(O[C@@H]2O[C@H](CO)[C@@H](O)[C@H](O)[C@H]2O)c(-c2ccc(O)cc2)oc2cc(O[C@@H]3O[C@H](CO)[C@@H](O)[C@H](O)[C@H]3O)cc(O)c12 [Compound 8, kaempferol-3,7-di-O-β-D-glucopyranoside]	407 ± 22.1 µM
C[C@@H]1O[C@@H](OC[C@H]2O[C@@H](O[C@H]3[C@H](Oc4c(-c5ccc(O)cc5)oc5cc(O)cc(O)c5c4=O)O[C@H](CO)[C@@H](O)[C@@H]3O)[C@H](O)[C@@H](O)[C@@H]2O)[C@H](O)[C@H](O)[C@H]1O [Compound 10, kaempferol-3-O-α-L-rhamnopyranosyl-(1 → 6)-β-D-glucopyranosyl-(1 → 2)-β-D-glucopyranoside]	209 ± 7.3 µM
kaempferol-3-O-rutinoside [Compound 11]	129 ± 9.2 µM

Compounds with a lower IC50, results first:

IC50	Compound
100 ± 3.2 µM	O=c1c(O[C@@H]2O[C@H](CO)[C@@H](O)[C@H](O)[C@H]2O)c(-c2ccc(O)cc2)oc2cc(O)cc(O)c12 [Compound 6, astragalin]
77.6 ± 2.4 µM	O=c1c(O)c(-c2ccc(O)cc2)oc2cc(O[C@@H]3O[C@H](CO)[C@@H](O)[C@H](O)[C@H]3O)cc(O)c12 [Compound 7, kaempferol-7-O-β-D-glucopyranoside]
36.3 ± 1.1 µM	O=c1c(O)c(-c2ccc(O)cc2)oc2cc(O)cc(O)c12 [Compound 5, kaempferol]
33.9 ± 1.1 µM	O=C1O[C@H]([C@@H](O)CO)C(O)=C1O [V c, L-ascorbic acid, reference compound]
